Reference: US20200399262A1, “COMPOUNDS FOR INHIBITING PROTEIN DEGRADATION AND METHODS OF USE THEREOF IN THE TREATMENT OF CANCER” (PI Therapeutics Ltd, priority 2018, published 2020)

Tests used:
Assay type in all cases: cell-based
[1] = test system: NCCIT; experiment: Cell viability panel, ATPlite 1Step; settings: Homo sapiens, Testicular embryonal carcinoma, 72 h exposure, read-out: Compound EC50
Description: (§1) Cell viability panel studies. Cells were diluted in the corresponding ATCC recommended medium and dispensed in a 384-well plate, depending on the cell line used, at a density of 200-6400 cells per well. For each used cell line, the optimal cell density was used. Compound was serially diluted and 8 concentration (0.04-32 μM) were added to the cells for 72 h exposure. At t=end, of ATPlite 1Step™ (PerkinElmer) were used to calculate cell viability. Cell lines marked with asterisk were seeded 24 h prior to treatment in 96-well plates at the density range of 5,000-40,000 cells/well, according to duplication rate, in RPMI 1640 medium containing 10% fetal bovine serum and 2 mM L-glutamine. Compounds were diluted from 10 mM DMSO stock and treatment was applied at the range of 0.04-1 μM. Following incubation at 37° C. for 48 hours with increasing concentrations of the compounds, viability was determined with CyQUANT® Direct Assay Kit (Invitrogen). Output intensities were normalized to values after treatment with DMSO alone, and EC50 values were calculated using the absorbance measurements [time zero, (Tz), growth control, (C), plus the test growth at the four drug concentration levels (Ti)] as follows: [(Ti−Tz)/(C−Tz)]×100 for concentrations for which Ti>/=Tz; [(Ti−Tz)/Tz]×100 for concentrations for which Ti−<Tz.

[2] = test system: SW837; experiment: Cell viability panel, ATPlite 1Step; settings: Homo sapiens, Rectal adenocarcinoma, 72 h exposure, read-out: Compound EC50
Description: as §1

[3] = test system: SW900; experiment: Cell viability panel, ATPlite 1Step; settings: Homo sapiens, Squamous cell lung carcinoma, 72 h exposure, read-out: Compound EC50
Description: as §1

[4] = test system: LNCaP FGC; experiment: Cell viability panel, ATPlite 1Step; settings: Homo sapiens, Prostate carcinoma, 72 h exposure, read-out: Compound EC50
Description: as §1

[5] = test system: PFSK-1; experiment: Cell viability panel, ATPlite 1Step; settings: Homo sapiens, Primitive neuroectodermal tumor, 72 h exposure, read-out: Compound EC50
Description: as §1

[6] = test system: AsPC-1; experiment: Cell viability panel, ATPlite 1Step; settings: Homo sapiens, ASPC1, Pancreatic ductal adenocarcinoma, 72 h exposure, read-out: Compound EC50
Description: as §1

[7] = test system: HT; experiment: Cell viability panel, ATPlite 1Step; settings: Homo sapiens, Diffuse large B-cell lymphoma, 72 h exposure, read-out: Compound EC50
Description: as §1

[8] = test system: PA-1; experiment: Cell viability panel, ATPlite 1Step; settings: Homo sapiens, Ovarian mixed germ cell tumor, 72 h exposure, read-out: Compound EC50
Description: as §1

[9] = test system: NCI-H460; experiment: Cell viability panel, ATPlite 1Step; settings: Homo sapiens, Large cell lung carcinoma, 72 h exposure, read-out: Compound EC50
Description: as §1

[10] = test system: Jurkat E6.1; experiment: Cell viability panel, ATPlite 1Step; settings: Homo sapiens, T acute lymphoblastic leukemia, 72 h exposure, read-out: Compound EC50
Description: as §1

[11] = test system: U-2 OS; experiment: Cell viability panel, ATPlite 1Step; settings: Homo sapiens, U2OS, Osteosarcoma, 72 h exposure, read-out: Compound EC50
Description: as §1

[12] = test system: HT-1080; experiment: Cell viability panel, ATPlite 1Step; settings: Homo sapiens, Fibrosarcoma, 72 h exposure, read-out: Compound EC50
Description: as §1

[13] = test system: SU-DHL-1; experiment: Cell viability panel, ATPlite 1Step; settings: Homo sapiens, Anaplastic large cell lymphoma, 72 h exposure, read-out: Compound EC50
Description: as §1

[14] = test system: PC-3; experiment: Cell viability panel, ATPlite 1Step; settings: Homo sapiens, Prostate carcinoma, 72 h exposure, read-out: Compound EC50
Description: as §1

[15] = test system: SW620; experiment: Cell viability panel, ATPlite 1Step; settings: Homo sapiens, SW-620, Colon adenocarcinoma, 72 h exposure, read-out: Compound EC50
Description: as §1

[16] = test system: MeWo; experiment: Cell viability panel, ATPlite 1Step; settings: Homo sapiens, Melanoma, 72 h exposure, read-out: Compound EC50
Description: as §1

[17] = test system: ACHN; experiment: Cell viability panel, ATPlite 1Step; settings: Homo sapiens, Papillary renal cell carcinoma, 72 h exposure, read-out: Compound EC50
Description: as §1

[18] = test system: CCF-STTG1; experiment: Cell viability panel, ATPlite 1Step; settings: Homo sapiens, Astrocytoma, 72 h exposure, read-out: Compound EC50
Description: as §1

[19] = test system: DU 145; experiment: Cell viability panel, ATPlite 1Step; settings: Homo sapiens, Prostate carcinoma, 72 h exposure, read-out: Compound EC50
Description: as §1

[20] = test system: SK-MEL-5; experiment: NCI60 screen cytotoxicity; settings: Homo sapiens, Melanoma, read-out: Compound B1 EC50
[21] = test system: HOP-92; experiment: NCI60 screen cytotoxicity; settings: Homo sapiens, Lung cancer, read-out: Compound B1 EC50
[22] = test system: MM1.S; experiment: Cell viability, ATPlite 1-step, MM cell lines; settings: Homo sapiens; MM1.S MM cell line; 48 hours; read-out: Compound EC50
Description: Cell Viability. The assay was performed only when cell viability was ≥90%. Cells were seeded in 96-well white clear bottom plates at concentration of 100,000 cells/mL and treated with serially diluted compounds or vehicle (DMSO) control in triplicates for 48 hours (h). Cell viability was determined using the ATPlite 1-step assay system (PerkinElmer). The method was based on the production of light caused by the reaction of ATP, which was a marker for cell viability. […] were added to the plates which were read in a plate reader for luminescence. The emitted light is proportional to the ATP concentration. Viability was calculated as the percent of viable cells from control vehicle-treated cells. EC50 was calculated using Prism software.
Potency of compounds were assessed by viability assay.

[23] = test system: IGR-OV1; experiment: NCI60 screen cytotoxicity; settings: Homo sapiens, IGROV-1, Ovarian cancer, read-out: Compound B1 EC50
[24] = test system: SW-620; experiment: NCI60 screen cytotoxicity; settings: Homo sapiens, Colon cancer, read-out: Compound B1 EC50
[25] = test system: HCT-15; experiment: NCI60 screen cytotoxicity; settings: Homo sapiens, Colon cancer, read-out: Compound B1 EC50
[26] = test system: NCI-H460; experiment: NCI60 screen cytotoxicity; settings: Homo sapiens, Lung cancer, read-out: Compound B1 EC50
[27] = test system: OVCAR-3; experiment: NCI60 screen cytotoxicity; settings: Homo sapiens, Ovarian cancer, read-out: Compound B1 EC50

CN(C)CCCS(=O)(=O)N1C/C(=C\c2ccc(C#N)cc2)C(=O)/C(=C/c2ccc(C#N)cc2)C1 [Compound AA]
EC50 [1]: < 300 nM | EC50 [2]: 300 to 1000 nM | EC50 [3]: 300 to 1000 nM | EC50 [4]: 300 to 1000 nM | EC50 [5]: < 300 nM | EC50 [6]: 300 to 1000 nM | EC50 [7]: < 300 nM | EC50 [8]: < 300 nM | EC50 [9]: < 300 nM | EC50 [10]: < 300 nM | EC50 [11]: < 300 nM | EC50 [12]: < 300 nM | EC50 [13]: < 300 nM | EC50 [14]: 300 to 1000 nM | EC50 [15]: < 300 nM | EC50 [16]: 300 to 1000 nM | EC50 [17]: 300 to 1000 nM | EC50 [18]: < 300 nM | EC50 [19]: 300 to 1000 nM

CN(C)CC(=O)NCC(=O)N1C/C(=C\c2ccc(C#N)cc2)C(=O)/C(=C/c2ccc(C#N)cc2)C1 [Compound B1]
EC50 [20]: 300 to 1000 nM | EC50 [21]: 300 to 1000 nM | EC50 [22]: < 300 nM | EC50 [23]: < 300 nM | EC50 [24]: < 300 nM | EC50 [25]: < 300 nM | EC50 [26]: < 300 nM | EC50 [27]: < 300 nM
